From patent US10112955B2, “Isoindoline, azaisoindoline, dihydroindenone and dihydroazaindenone inhibitors of Mnk1 and Mnk2” (eFFECTOR THERAPEUTICS, INC., priority 2015, dated 2018) come the findings set out here.

The test system of one data set is Phosphorylated eIF4E. As to the kind of experiment: peIF4E Signaling Cellular Assay (CisBio peIF4E HTRF). Particulars: cells incubated with compound for 2 hrs at 37° C., 12-point curve. Type of data set: cell-based. An outline of the steps:
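Cells in growth medium treated with 3-fold serially diluted compounds for 2 h at 37° C, then lysed ≥30 min at room temperature. Lysate incubated overnight with HTRF antibody pair; 665/620 nm emission ratio converted to percent inhibition, IC50 by nonlinear regression.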
(In TR-FRET formats the signal depends on donor and acceptor labels being close together.)

A short description of data set [1]: Pharmacokinetics, single oral gavage administration. Type of data set: in vivo. Particulars: male Sprague Dawley rats, single oral gavage 10 mg/kg, N = 3/group (Cpd. 71 N = 2), formulation 10% NMP/90% PEG400 (Cpd. 57: 10% DMA/90% PEG300); for AUC(0-inf) / Cmax / Tmax / half-life: rat, plasma. The method, then: (§1) Groups of Balb/c mice or Sprague-Dawley rats (n≥3 per dose group) are administered single doses of test compound. Compounds are formulated either as solutions in 10% N-methylpyrrolidone, 90% polyethyleneglycol 400 or as suspensions in 0.5% methylcellulose in water for oral gavage administration at a nominal dose level of 10 mg/kg. Compounds are formulated in 10% dimethylisosorbide, 15% ethanol, 35% propylene glycol, and 40% saline (or 40% D5W) for intravenous administration at a nominal dose level of 1 mg/kg. For intravenously dosed animals, blood samples are collected at 0.083, 0.25, 0.5, 1, 2, 4, 8, and 24 h post dose. For orally dosed animals, blood samples are collected at 0.25, 0.5, 1, 2, 4, 8, and 24 h post dose. Blood samples are collected from mice either serially via submandibular vein (approximately 0.1 mL each) or terminally via cardiac puncture (approximately 0.5 mL each). Blood samples are collected serially from rats via jugular vein catheter (approximately 0.2 mL each). Each blood sample is collected into a tube that is chilled and contains potassium EDTA as the anticoagulant. Plasma is separated and stored at approximately −80 C until analysis. Following protein precipitation with acetonitrile containing an internal standard, plasma samples are analyzed using a liquid chromatography/high-resolution mass spectrometry (LC-HRMS) method to determine plasma concentrations. Plasma concentration versus time data are subjected to noncompartmental pharmacokinetic analysis using Phoenix™ Winnonlin® (Certara LP) to determine pharmacokinetic parameters, including Area Under the Curve (AUC), Clearance (Cl), Volume of Distribution at Steady-State (Vss), and terminal half-life (T1/2). Data from orally and intravenously dose are highlighted in Tables 3 and 4, respectively.

The target of another data set is MNK2 (Homo sapiens (Human), UniProt Q9HBH9). Kind of data set: MNK Biochemical Enzymatic Assay (ADP-Glo), MNK2. Particulars: 3 nM recombinant MNK2, 50 μM substrate peptide, 10 μM ATP. On the procedure: Compounds are screened for MNK inhibition using the ADP-Glo kinase assay kit (Promega, catalogue No. V9101). All kinase reactions are performed in Reaction Buffer E (15 mM HEPES pH7.4, 20 mM NaCl, 1 mM EGTA, 10 mM MgCl2, 0.1 mg/ml BGG, and 0.02% Tween-20). […] Final DMSO concentration in each reaction is 1%.
Kinase reactions are carried out in 96-well half-area white flat-bottom polystyrene plates in a final volume of 25 μl. MNK1/2 enzymes are pre-incubated with compound and peptide substrate for 5 minutes prior to the addition of ATP. After the addition of ATP, kinase reactions are incubated at room temperature for 40 minutes. Reactions are subsequently stopped by the addition of 25 μl of ADP-Glo Reagent and incubating for an additional 40 minutes. The final luminescent signal used for kinase activity readout is produced by the addition of 45 μl of Kinase Detection Reagent (ADP-Glo kit, Promega) and incubating for 40 minutes.

A short description of data set [2]: Pharmacokinetics, single intravenous bolus administration. Particulars: rat, plasma, male Sprague Dawley rats, single intravenous bolus 1 mg/kg, N = 3/group, formulation 10% NMP/15% EtOH/35% PEG400/40% D5W (Cpd. 57: 10% DMA/15% EtOH/35% PEG400/40% D5W); for half-life: read-out: T½ (converted); for Vd: read-out: Vss. It is filed as in vivo. On the procedure:
as §1, with “Compounds are formulated in 10% dimethylisosorbide, 15% ethanol, 35% propylene glycol, and 40% saline (or 40% D5W) for intravenous administration at a nominal dose level of 1 mg/kg.” left out

MNK2, sequence (Q9HBH9 whole entry): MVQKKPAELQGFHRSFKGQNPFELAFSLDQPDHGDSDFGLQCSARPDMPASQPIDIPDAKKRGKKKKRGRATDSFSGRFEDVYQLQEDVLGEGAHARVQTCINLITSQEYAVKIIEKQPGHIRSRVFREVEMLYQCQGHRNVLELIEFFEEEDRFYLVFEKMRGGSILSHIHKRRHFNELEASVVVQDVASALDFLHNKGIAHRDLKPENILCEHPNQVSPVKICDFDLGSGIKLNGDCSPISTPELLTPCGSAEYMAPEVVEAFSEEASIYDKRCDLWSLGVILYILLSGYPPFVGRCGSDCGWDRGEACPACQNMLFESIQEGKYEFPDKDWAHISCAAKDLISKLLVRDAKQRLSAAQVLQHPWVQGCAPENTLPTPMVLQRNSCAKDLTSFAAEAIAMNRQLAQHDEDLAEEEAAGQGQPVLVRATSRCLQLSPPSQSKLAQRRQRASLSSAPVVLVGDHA

The IC50 is the midpoint of a concentration-inhibition curve. By AUC(0-inf) is commonly meant the area under the concentration-time curve extrapolated to infinity. A low value points to low exposure. In general, Cmax refers to the maximum level reached in the sampled fluid or tissue. A word on the Tmax: it is the time at which the peak concentration occurs. A word on the clearance: it is a measure of how efficiently the substance is removed, as volume per time. As for `COc1c(N)ncnc1Nc1cc(C)c2c(c1)C1(CCCCC1)NC2=O` [Cpd. No. 57, 6′-((6-amino-5-methoxypyrimidin-4-yl)amino)-4′-methylspiro[cyclohexane-1,1′-isoindolin]-3′-one], the IC50 with Phosphorylated eIF4E was less than 50 nM. Also, in data set [1], the F was found to be 14.5%, the AUC(0-inf) was 2490 ng·h/mL, the Cmax came to 584 ng/mL and the time of peak concentration (Tmax) is 0.833 h. In data set [1], the half-life was 3.27 h. Moreover, the IC50 on MNK2 was less than 10 nM. In data set [2], the AUC(0-inf) was determined as 1720 ng·h/mL, the clearance amounted to 11.1 mL/min/kg, the half-life is 7.78 h and the Vd was determined as 3.46 L/kg.

On to `Cc1cc(Nc2ncnc(N)c2C)cc2c1C(=O)NC21CCCCC1` [Cpd. No. 55, 6′-((6-amino-5-methylpyrimidin-4-yl)amino)-4′-methylspiro[cyclohexane-1,1′-isoindolin]-3′-one], for which the IC50 with Phosphorylated eIF4E is less than 50 nM. Also, in data set [1], the F was 25.0%, the AUC(0-inf) worked out at 2650 ng·h/mL, the highest level (Cmax) was 425 ng/mL and the Tmax turned out to be 4 h. In data set [1], this compound gave a half-life of 2.59 h. In addition, the IC50 at MNK2 fell in the range of 10 to 100 nM. In addition, in data set [2], the AUC(0-inf) was 1060 ng·h/mL, the clearance stood at 16.6 mL/min/kg, the half-life is 7.34 h and the Vd came to 6.56 L/kg.

For the compound `COc1c(N)ncnc1Nc1cc(C)c2c(n1)C1(CCCCC1)NC2=O` [Cpd. No. 72, 2′-((6-amino-5-methoxypyrimidin-4-yl)amino)-4′-methylspiro[cyclohexane-1,7′-pyrrolo[3,4-b]pyridin]-5′(6′H)-one], the IC50 with Phosphorylated eIF4E was less than 50 nM. In data set [1], the F is reported as 24.2%, the AUC(0-inf) came to 2740 ng·h/mL, the peak concentration (Cmax) was found to be 1380 ng/mL and the Tmax was determined as 0.667 h. The compound also showed a half-life in data set [1] of 2.75 h. In addition, in data set [2], the AUC(0-inf) was determined as 1130 ng·h/mL, the clearance worked out at 14.8 mL/min/kg, the half-life was 8.48 h and the Vd is 4.59 L/kg.

As to `Cc1cc(Nc2ncnc(N)c2C)nc2c1C(=O)NC21CCCCC1` [Cpd. No. 71, 2′-((6-amino-5-methylpyrimidin-4-yl)amino)-4′-methylspiro[cyclohexane-1,7′-pyrrolo[3,4-b]pyridin]-5′(6′H)-one], the IC50 in the data set with Phosphorylated eIF4E was less than 50 nM. Moreover, in data set [1], the F is given as 63.9%, the AUC(0-inf) was found to be 5660 ng·h/mL, the concentration peaked (Cmax) at 1140 ng/mL and the Tmax was found to be 0.5 h. The same compound had a half-life in data set [1] of 2.9 h. Also, in data set [2], the AUC(0-inf) worked out at 886 ng·h/mL, the clearance stood at 19.1 mL/min/kg, the half-life is 4.15 h and the Vd was 3.9 L/kg.

As for `Cc1cc(Nc2ncnc(N)c2Cl)cc2c1C(=O)NC21CCCCC1` [Cpd. No. 58, 6′-((6-amino-5-chloropyrimidin-4-yl)amino)-4′-methylspiro[cyclohexane-1,1′-isoindolin]-3′-one], the IC50 with Phosphorylated eIF4E is less than 50 nM. Besides, in data set [1], the F came to 27.9%, the AUC(0-inf) stood at 1370 ng·h/mL, the Cmax turned out to be 417 ng/mL and the time of peak concentration (Tmax) worked out at 0.417 h. In data set [1], this compound showed a half-life of 9.15 h. Further, on MNK2, the 50% inhibitory concentration (IC50) was less than 10 nM. In addition, in data set [2], the AUC(0-inf) worked out at 491 ng·h/mL, the clearance worked out at 35.3 mL/min/kg, the half-life was 9.44 h and the Vd was determined as 13.2 L/kg.
